From US20250092036A1, “COMPOUNDS AND COMPOSITIONS FOR MODULATING THE ACTIVITY OF ERK” (Novartis AG, priority 2023, published 2025) come the findings set out here.

One data set concerns WM793 cells. The data set can be described thus: Cell proliferation assay (CellTiter-Glo). The class given is cell-based. As to conditions: 3 d, read-out: Cell proliferation qualified AC50. The procedure:
(§1) Cancer cell media was prepared by adding 500 mL of RPMI (ThermoFisher cat ##22400-089) and 10% Fetal Bovine Serum (Gibco) for WM793 cells (ATCC Cat #CRL-2806, RRID: CVCL 8787) and F12K (Thermo Fisher cat #21127-022, 500 mL; or 21127-030, 10×500 mL)+10% FBS for PC3 (ATCC CRL-1435) cells. The entire media with supplements was filter sterilized through a 0.4 μm bottle top filter system. Cancer cell lines were detached from traditional cell culture flasks by washing three times with 1×PBS and adding an appropriate amount of 0.25% TrypLE™ Express Enzyme (1×), no phenol red (ThermoFisher cat #12604013) to create a thin layer over the cells. Trypsin was neutralized with media containing serum and proceeded to count the cells.
After counting the cells, the concentration of the cell solution was adjusted to seed a total of 750 cells per well in 50 μL of complete media into 384-well tissue culture treated plates. In a biological safety cabinet, cells were seeded using a sterilized small stainless steel tipped cassette on a Multi-drop Combi. Between different cell lines, the tubing of the cassette was flushed with 1× sterile PBS for 10 seconds. Alternatively, cells can be seeded using a Multi-flow located within a Hepa filtered robotics room using either a sterilized small sapphire jewel tipped cassette and the peristatic pump, or the attached syringe pump, depending on volume of plates per cell line needed. The plates were placed in an incubator set at 37° C., with 5% CO2 and 95% relative humidity. A 10-point, 3-fold serial dilutions of compounds in 100% DMSO was prepared on a liquid handling robot with a 10 mM top concentration. 100 nL/well in three assay plates/1 compound was dispensed to source plate, with the highest concentration at 20 μM. After addition of compound was complete, plates were placed into an incubator at 37° C., with 5% CO2 and 95% relative humidity for 3 d. An adequate volume of CellTiter-Glo® (Promega #G7571) detection reagent was pre-warmed to RT or in a 37° C. H2O bath. 25 μL of the reagent was added to each well using either a Multi-drop Combi or MultiFlo and incubate at RT for at least 15 min. Luminesce was captured on a plate luminometer such as an Envision or View Lux to measure Day 0 time point both select cell lines. LUM plus, gain 3500, 0.1 s and focal height 12.5 mm on PheraStar reader. At Day 3, an adequate volume of CellTiter-Glo® detection reagent was pre-warmed at RT or in a 37° C. H2O bath. A total of 25 μL of the reagent was added to each well using either a Multi-drop Combi or MultiFlo and incubate at RT for at least 15 min. Luminesce was captured on a plate luminometer such as an Envision or View Lux to measure Day 3 time point both select cell lines. LUM plus, gain 3500, 0.1 s and focal height 12.5 mm on PheraStar reader. Raw data was extracted from the instrument and all fields containing test compounds were normalized to the average of all wells containing DMSO alone from Day 3 as neutral control and Day 0 starting numbers. From this value, percent growth inhibition of each compound was calculated. Dose response curves and growth inhibitory IC50s were generated by graphing the normalized data values against the compound concentration using a program such as GraphPad™ or Excel Fit.

Data set [1] deals with WM793 BRAFV600E tumor xenograft. The experiment in a line: Anti-tumor activity and tolerability in WM793 BRAFV600E tumor xenograft in nude rats. The class given is in vivo. As to conditions: per os. The method, then: Female RNU rats (Charles River, 4-5 weeks of age) were acclimatized into animal facility and pretreated with 100 mg/kg cyclophosphamide IP at 10 ml/kg 24 hrs prior to tumor implant. Nude rats were subcutaneously implanted on the right side with WM793 BRAF^V600E tumors via fragments (20-40 mg) from a previously passaged tumor with sterile techniques under isoflurane anesthesia using a 10 gauge trocar (n=4/group). Body weights were monitored at least once a week and calculated as (BWcurrent−BWinitial)/(BWinitial)×100%. After 1-3 weeks when palpable tumors developed, tumor volumes were monitored at least once a week by caliper measurements. Tumor volumes (mm^3) were calculated as (length×width×width)/2. Rats were randomized and selected for study based on tumor sizes (100-200 mm^3) and appropriate health conditions. Compounds of Formula I, formulated in either 20% HPBCD at 5 mg/ml or 20% HPBCD at 2.5 mg/ml were dosed at 10 ml/kg per os. Animals were euthanized based on poor health conditions, tumor volumes exceeded 2500 mm^3, or have reached the end of study. Regression % was calculated by 100×ΔT/Tinitial if ΔT<0, in which ΔT is the change of tumor volume.

Data set [2] addresses T1, nanobit-large-bit-ERK2 and nanobit-small-bit-PEA15 in WM793 cells (Homo sapiens, UniProt P28482).
T1 construct: expressed in transfected cells
The data set can be described thus: NanoBiT assay. The note with it: WM793 nanobit stable cell line, overnight incubation; read-out: NanoBiT qualified absolute AC50. The class given is cell-based. The method, then: as §1
A nanobit stable cell line was generated using WM793 cells with nanobit-large-bit-ERK2 and nanobit-small-bit-PEA15. […] In a biological safety cabinet, cells were seeded using a sterilized small stainless steel tipped cassette on a Multi-drop Combi. Between different cell lines, the tubing of the cassette was flushed with 1× sterile PBS for 10 s. Alternatively, cells can be seeded using a Multi-flow located within a Hepa filtered robotics room using either a sterilized small sapphire jewel tipped cassette and the peristatic pump, or the attached syringe pump, depending on volume of plates per cell line needed. The plates were placed in an incubator set at 37° C., with 5% CO2 and 95% relative humidity. A 10-point, 3-fold serial dilution of compounds was prepared in 100% DMSO on a liquid handling robot with a 10 mM top concentration. 90 nl/well was dispensed in three assay plates/1 compound source plate, with the highest concentration at 30 μM. After addition of compound was complete, the plates were placed into an incubator at 37° C., with 5% CO2 and 95% relative humidity for overnight. Luminescence was captured on a plate luminometer such as an Envision or View Lux to measure Day 0 time point both select cell lines. LUM plus, gain 3500, 0.1 s and focal height 12.5 [mm] on PheraStar reader. The raw data was extracted from the instrument and normalized all fields containing test compounds to the average of all wells containing DMSO alone as neutral control. From this value, the percent growth inhibition was calculated for each compound. Dose response curves and inhibitory IC50s were generated by graphing the normalized data values against the compound concentration using either a program such as GraphPad™ or Excel Fit.

Data set [3] deals with T2, ERK2[2-360(p-T185/p-Y187)]-Avi (Homo sapiens, UniProt P28482).
T2 construct: 400 pM ERK2[2-360(p-T185/p-Y187)]-Avi was added to the plate
The experiment in a line: Biochemical assay (HTRF competition assay). Format: binding. As to conditions: HTRF competition with Example 15 probe, overnight at RT; read-out: Biochemical qualified AC50. The method, then: The competition assays were performed at RT in a 384-well white polystyrene, flat bottom plate (Greiner #784075) using a final reaction volume of 15 μL and the following assay buffer conditions: 50 mM MOPS, pH 7.2, 10 mM MgCl2, 0.5 mM TCEP, 0.01% Triton-X-100. 75 nL of a 10 mM compound solution in DMSO or 100% DMSO (12 point titration, final concentration: 50 μM-300 pM; final DMSO: 0.5%) was added using an acoustic liquid handler (Echo, Beckman Coulter) to wells containing 7.5 μL of 1-(6-((R)-3-(1-(5-chloro-1-((tetrahydro-2H-pyran-4-yl)methyl)-1H-indole-3-carbonyl)-4-(4-fluorophenyl)piperidine-4-carboxamido)pyrrolidin-1-yl)-6-oxohexyl)-3,3-dimethyl-5-sulfo-2-((1E,3E)-5-((E)-1,3,3-trimethyl-5-sulfoindolin-2-ylidene)penta-1,3-dien-1-yl)-3H-indol-1-ium (Example 15); 7.5 μL 400 pM SA-Tb (Cisbio, 610SATLB) and 400 pM ERK2[2-360(p-T185/p-Y187)]-Avi was added to the plate and incubated overnight at RT. HTRF signal was measured using a microplate reader (PheraStar, BMG Labtech) with excitation and emission wavelengths of […], respectively. The inhibitor dose-response curves were analyzed from the HTRF ratio signal using normalized IC50 regression curve fitting with control-based normalization.

Where two headings read alike, the source gives them in different places.

T1 sequence (P28482 whole entry): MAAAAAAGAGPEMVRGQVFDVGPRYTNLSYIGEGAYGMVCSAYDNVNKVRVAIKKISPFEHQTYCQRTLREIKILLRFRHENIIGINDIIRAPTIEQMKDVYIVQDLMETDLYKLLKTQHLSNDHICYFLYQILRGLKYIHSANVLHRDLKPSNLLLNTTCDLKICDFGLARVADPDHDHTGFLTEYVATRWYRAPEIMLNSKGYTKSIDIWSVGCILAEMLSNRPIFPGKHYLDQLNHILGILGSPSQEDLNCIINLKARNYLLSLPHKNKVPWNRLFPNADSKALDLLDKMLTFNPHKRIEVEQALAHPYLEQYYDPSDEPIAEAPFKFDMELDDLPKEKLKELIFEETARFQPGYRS
T2 sequence (P28482 2-360 limits assumed): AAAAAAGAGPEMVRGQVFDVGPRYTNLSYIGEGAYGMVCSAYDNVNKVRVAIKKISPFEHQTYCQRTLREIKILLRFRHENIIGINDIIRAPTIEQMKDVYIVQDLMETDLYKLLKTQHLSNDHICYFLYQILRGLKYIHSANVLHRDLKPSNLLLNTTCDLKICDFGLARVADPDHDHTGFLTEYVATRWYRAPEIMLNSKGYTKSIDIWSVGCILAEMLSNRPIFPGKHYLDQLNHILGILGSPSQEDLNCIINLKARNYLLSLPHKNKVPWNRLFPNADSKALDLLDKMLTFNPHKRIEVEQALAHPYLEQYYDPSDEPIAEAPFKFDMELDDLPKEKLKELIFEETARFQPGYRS

In the case of `CC(C)OC1CCC(C2CN(C(=O)N3CC[C@@](C(=O)N[C@H]4CC[C@H](C(=O)O)C[C@@H]4C)(c4ccc(F)cc4)C[C@@H]3C)c3cc(F)ccc32)CC1` (stereo partly drawn) [Example 4, (1S,3S,4S)-4-((2S,4S)-1-(6-fluoro-3-((1R,4S)-4-isopropoxycyclohexyl)indoline-1-carbonyl)-4-(4-fluorphenyl)-2-methylpiperidine-4-carboxamido)-3-methylcyclohexane-1-carboxylic acid], the AC50 is 3 nM with WM793 cells, 20 nM in data set [2] and 0.47 nM in data set [3]. Moreover, the “Percent body weight change following first dose / tolerability” value in data set [1] is “well tolerated”. Further, the “anti-tumor activity (tumor volume)” value in data set [1] (22 days, dose not given) is reported as “regression”.
Take `CCc1c(C[C@H]2CC[C@H](OC3CCOCC3)CC2)c2ccc(F)cc2n1C(=O)N1CCC(C(=O)N[C@H]2CC[C@H](C(=O)O)C[C@@H]2C)(c2ccc(F)cc2)CC1` [Example 5, (1S,3S,4S)-4-(1-(2-ethyl-6-fluoro-3-(((1r,4S)-4-((tetrahydro-2H-pyran-4-yl)oxy)cyclohexyl)methyl)-1H-indole-1-carbonyl)-4-(4-fluorophenyl)piperidine-4-carboxamido)-3-methylcyclohexane-1-carboxylic acid]: the AC50 in the data set with WM793 cells (Homo sapiens, WM793, 72 h) was 24 nM; in data set [2], 66 nM; in data set [3], 0.7 nM. In data set [1], the “Percent body weight change following first dose / tolerability” value is “well tolerated”. In addition, the “anti-tumor activity (tumor volume) with holiday break” value in data set [1] (50 mg/kg bid for 5 days with 2 day break) is given as “tumor regression, which is maintained”. Further, the “anti-tumor activity (tumor volume)” value in data set [1] (50 mg/kg bid for 22 days) is “tumor regression”.
As to `CCO[C@H]1CC[C@H](Cc2c(C)n(C(=O)N3CCC(C(=O)N[C@H]4CC[C@H](C(=O)O)C[C@@H]4C)(c4ccc(F)cc4)CC3)c3cc(F)ccc23)CC1` [Example 7, (1S,3S,4S)-4-(1-(3-(((1r,4S)-4-ethoxycyclohexyl)methyl)-6-fluoro-2-methyl-1H-indole-1-carbonyl)-4-(4-fluorophenyl)piperidine-4-carboxamido)-3-methyl cyclohexane-1-carboxylic acid], the AC50 in the data set with WM793 cells (Homo sapiens, WM793, 72 h) was determined as 96 nM; in data set [2] it was 80 nM; in data set [3] it was 0.33 nM.
The like results for `Cc1c(C[C@H]2CC[C@H](OC3CCOCC3)CC2)c2ccc(F)cc2n1C(=O)N1CC[C@@](C(=O)N[C@H]2CC[C@H](C(=O)O)C[C@@H]2C)(c2ccc(F)cc2)C[C@@H]1C` [Example 9, (1S,3S,4S)-4-((2S,4S)-1-(6-fluoro-2-methyl-3-(((1r,4S)-4-((tetrahydro-2H-pyran-4-yl)oxy)cyclohexyl)methyl)-1H-indole-1-carbonyl)-4-(4-fluorophenyl)-2-methylpiperidine-4-carboxamido)-3-methylcyclohexane-1-carboxylic acid] were, in that order, 5.9 nM, 26 nM and 0.44 nM.
The matching figures for `CN1CC[C@@H](NC(=O)C2(c3ccc(F)cc3)CCN(C(=O)c3cn(CC4CCOCC4)c4ccc(Br)cc34)CC2)C1` [Example 11, (R)-1-(5-bromo-1-((tetrahydro-2H-pyran-4-yl)methyl)-1H-indole-3-carbonyl)-4-(4-fluorophenyl)-N-(1-methylpyrrolidin-3-yl)piperidine-4-carboxamide]: 2700 nM, 4900 nM and 18 nM.
The like results for `CN1CC[C@@H](NC(=O)C2(c3ccc(Cl)cc3)CCN(C(=O)c3c(C=O)n(CC4CCOCC4)c4ccc(Cl)cc34)CC2)C1` [Example 11b] were, in that order, 220 nM, 560 nM and 0.65 nM.
In the case of `CC(C)O[C@H]1CC[C@H](Cn2c(C=O)c(C(=O)N3CCC(C(=O)N[C@H]4CC[C@H](C(=O)O)C[C@@H]4C)(c4ccc(F)cc4)CC3)c3cc(Cl)cnc32)CC1` [Example 11g], the AC50 in the data set with WM793 cells (Homo sapiens, WM793, 72 h) stood at 610 nM; in data set [2], 270 nM; in data set [3], 0.36 nM.
Take `CC(C)O[C@H]1CC[C@H](Cn2c(C=O)c(C(=O)N3CCC(C(=O)N[C@H]4CC[C@H](C(=O)O)C[C@@H]4C)(c4ccc(F)cc4)CC3)c3cc(Cl)ccc32)CC1` [Example 11h]: the AC50 was 120 nM in the data set on WM793 cells (Homo sapiens, WM793, 72 h); 54 nM in data set [2]; below 0.28 nM in data set [3].
The like results for `Cc1c(C(=O)N2CCC(C(=O)N[C@H]3CN(C)C[C@H]3F)(c3ccc(F)cc3)CC2)c2cc(Cl)ccc2n1CC1CCOCC1` [Example 12, 1-(5-chloro-2-methyl-1-((tetrahydro-2H-pyran-4-yl)methyl)-1H-indole-3-carbonyl)-N-((3S,4R)-4-fluoro-1-methylpyrrolidin-3-yl)-4-(4-fluorophenyl)piperidine-4-carboxamide] were, in that order, 270 nM, 350 nM and 1.3 nM.
